Reference: US10870889B2, “Immunoglobulin expression levels as biomarker for proteasome inhibitor response” (Onyx Therapeutics, Inc., priority 2013, dated 2020)
“And” between values parts separate entries of the source, which are not always exact repeats. Identical values can stand only once.

Assays:
[1] = tested on: multiple myeloma patients; assay: Carfilzomib data analysis: IGH/IGK/IGL and FCGR2B expression (RNA-Seq, FPKQ, CD138+ tumor cells) versus response, cutoffs with % sensitivity/% specificity (ROC) and time-to-progression on single-agent carfilzomib; type: in vivo, human
Method: (§1) Bone marrow samples were aspirated from patients enrolled on Onyx-sponsored Phase 2 trials (NCT00511238, NCT00530816, and NCT00721734) prior to treatment with single-agent carfilzomib. Myeloma tumor cells were isolated by EasySep® immunomagnetic bead-based CD138+ selection (StemCell Technologies), re-suspended in TRIzol (Life Technologies) and frozen at […]. RNA was extracted from these samples with the PureLink RNA kit from Life Technologies (Cat #12183018A), following the recommended protocol for cells in TRIzol suspension, including the optional on-column DNase treatment. Elution volumes ranged from 75 μl-30 μl depending on the total number of cells going into isolation. ERCC control sequences from Life Technologies (ERCC ExFold RNA Spike-In Mix; Cat #4456739) were spiked in to all total RNA samples of sufficient quantity (Nanodrop yield>=150 ng) and quality (Bioanalyzer RIN>=7.0). For 500 ng input libraries, 1 μl of a 1:100 dilution of Mix 1 was added to each total RNA sample and for 150 ng input libraries, 3 μl of a 1:1000 dilution of Mix 1 was added to each total RNA sample. The resulting material was used to construct RNA-Seq libraries with Illumina's TruSeq RNA sample prep kit v2 (Cat #RS-122-2001), with PolyA selection included as the first step. Libraries were sequenced on Illumina's HiSeq 2000 with a target of 70 million fragments using 100×100 bp paired-end sequencing to generate 140 million reads per sample and the resulting raw data was QC-ed with metrics implemented in OmicSoft Array Studio v6.1.
(§2) Raw sequence reads were aligned and expression of genes & isoforms were quantified with a customized pipeline also built in Array Studio v6.1 [Jun]. This pipeline accepts Illumina adapter-stripped, paired-end reads that are trimmed at the […] if a base reaches PHRED quality score Q2 or lower. All reads are aligned to the transcriptome, which consists of the RefGene annotation of human hg19 supplemented with the more rich Ig loci annotations available from ENSEMBL. Reads aligned with mismatches and unaligned reads are subsequently aligned to the entire human genome, searching for novel exon junctions. Reads that remain unaligned are then aligned to the newly identified exon junctions. Alignments to the different references are compared and the highest scoring alignment is retained, or in the event of a tie, the transcriptome alignment is preferentially kept. Finally, all transcriptome alignment locations are translated to genomic coordinates to estimate the expected number of mappings per gene/isoform using the EM algorithm [Dempster]. The EM algorithm assigns reads with multiple alignment locations to an isoform by calculating the conditional probability of a read aligning to a specific isoform, given all other alignments. Weighting the total number of aligned reads with this probability yields posterior expected read counts for each transcript. The EM counts are normalized by the length of the genes/isoforms and number of reads in a library to yield FPKM values (Fragments Per Kilobase per Million reads). Between-sample normalization is achieved by 75th quantile normalization, where each sample is scaled by the median of 75th quantiles from all samples to yield quantile-normalized FPKM or “FPKQ” values.
The FPKQ values corresponding to each “gene” of the three Ig loci, IGH (immunoglobulin heavy locus), IGK (immunoglobulin kappa locus) and IGL (immunoglobulin lambda locus), were summed to produce locus-level expression estimates.
Patients with a best overall response of minimal response (MR) or better (i.e., MR, partial response [PR], very good partial response [VGPR] and complete response [CR]) were grouped into a responder category (N=27; abbreviated as “R”) and patients with a best overall response of stable disease (SD) or worse (i.e., SD and progressive disease [PD]) were grouped into a non-responder category (N=33; abbreviated as “NR”). […]

[2] = tested on: high and low Ig-expressing hybridoma cell lines; assay: Drug sensitivity assay on two additional pairs of high and low Ig-expressing hybridoma cell lines; type: cell-based
IG expression = IG expression in tumor sample of one patient at screening and on Cycle 1 Day 2 of single-agent carfilzomib (RNA-Seq); type: in vivo, human
Method: as §1, §2
To understand, how IG expression changes during treatment with proteasome inhibitors, the data was examined from one patient for which both a screening tumor sample and a sample collected on Cycle 1 Day 2 (C1D2) of treatment with single-agent carfilzomib were available.

[3] = tested on: Line A (high Ig) hybridoma cells; assay: Hybridoma sensitivity to carfilzomib, CellTiter-Glo Luminescent Cell Viability Assay, Line A; type: cell-based; conditions: 72h treatment, viability vs no treatment control, read-out: inhibitory concentration (IC50) on the cells of Line A
Method: (§3) The two hybridoma cell lines were tested for sensitivity to carfilzomib. Cells of each of Line A (high Ig) and Line B (low Ig) were treated with various doses (40 nM, 30 nM, 20 nM, 15 nM, l0 nM, 7.5 nM, 5 nM, 3.75 nM and 2.5 nM) of carfilzomib for 72h. The viability of the cells were then measured by CellTiter-Glo® Luminescent Cell Viability Assay (Cat. No. G7570; Promega Corporation) and compared to no treatment control.

[4] = tested on: Line B (low Ig) hybridoma cells; assay: Hybridoma sensitivity to carfilzomib, CellTiter-Glo Luminescent Cell Viability Assay, Line B; type: cell-based; conditions: 72h treatment, viability vs no treatment control
Method: as §3

[5] = tested on: multiple myeloma patients; assay: Bortezomib data analysis: combined Ig expression score (Affymetrix microarray, CD138+ tumor cells, GSE9782) versus response and time-to-progression on single-agent bortezomib or dexamethasone; type: in vivo, human; conditions: bortezomib-treated patients
Excerpt: Publicly available RNA microarray data in tab-delimited text format were downloaded from the Gene Expression Omnibus (GEO ID: GSE9782).
A list of 55 probes from this Affymetrix microarray platform that map to genes encoding immunoglobulin (Ig)-related proteins was obtained from Rody et al. Addition File 5. This example tested for an association between normalized intensity of each of these 55 probes and bortezomib response, which was labeled as “PGx_Responder=R” in the dataset. […] The finding of 13 significant associations is far more than expected by chance (Binomial P-value=2×10^−6). […] It is not surprising that many probes are not associated, given that some map to rarer, patient-specific portions of the Ig loci and that others map to regions that are unusually highly-expressed, and therefore not well-measured with microarray technology (i.e., their fluorescence is likely to be saturated).
Patients were classified as achieving complete response (CR), partial response (PR), minimal response (MR), no change (NC), or progressive disease (PD), using European Group for Bone Marrow Transplantation criteria. In brief, PD requires 25% increase in paraprotein, whereas MR, PR, and CR require at least 25%, 50%, and 100% decreases, respectively.
Various mean IG expression cutoffs were considered to maximize the clinical utility of a potential diagnostic test. Ultimately, a cutoff of 0.29 (defining “IG-High”>=0.29 and “IG-Low”<0.29) was chosen, predicting response in the training data with 71% sensitivity and 62% specificity. This same cutoff was then applied to time-to-progression (TTP) data for these patients, finding that IG-High patients in this cohort have a 1.4-fold longer median TTP than IG-Low patients (8.4 months vs. 6.0 months; log-rank P-value=0.025).

[6] = FCGR2B cutoffs 75 and 5 combined with IGH-High cutoff 140,000
[7] = Screening vs C1D2, one patient, single-agent carfilzomib
[8] = one patient, tumor sample on Cycle 1 Day 2 of single-agent carfilzomib

For `CC(C)C[C@H](NC(=O)[C@H](CCc1ccccc1)NC(=O)CN1CCOCC1)C(=O)N[C@@H](Cc1ccccc1)C(=O)N[C@@H](CC(C)C)C(=O)[C@@]1(C)CO1` [carfilzomib], the “median TTP, IGH+FCGR2B-Negative patients” value [1, 6] was 1.2 months, the “median TTP, IGH+FCGR2B-Positive patients” value [1, 6] was 8.9 months and the “median TTP (time to progression), IGH-Low patients” value ([1]; IGH FPKQ <160,000) was 1.4 months and 1.3 months. The “median TTP (time to progression), IGH-High patients” value ([1]; IGH FPKQ >=160,000) was 7.6 months and 7.3 months, the “fold longer median TTP, IGH-High vs IGH-Low patients” value ([1]; log-rank P-value=0.003) was 6 fold and 5.4 fold and the “fold longer median TTP, IGH+FCGR2B-Positive vs IGH+FCGR2B-Negative patients” value ([1]; log-rank P-value=3×10−5) was 7.3 fold. For the same compound, the “sensitivity of high Ig-expressing hybridoma lines relative to low Ig-expressing lines” value [2] was “greater sensitivity”, the “Fold-Change of expression, gene ICKV3-20” value (IG expression; [7]) was 4.11 and the “Fold-Change of expression, gene IGHA1” value (IG expression; [7]) was 3.37. The “Fold-Change of expression, gene IGHV3-30” value (IG expression; [7]) was 3.63, the “Fold-Change of expression, gene IGHV3-33” value (IG expression; [7]) was 3.77 and the “Fold-Change of expression, gene IGKC” value (IG expression; [7]) was 3.88. The “IG expression lower in the sample collected one day after the first dose” value (IG expression; one patient, screening vs C1D2) was 3- to 4 fold, the “Expression C1D2, gene ICKV3-20” value (IG expression; [8]) was 9.6E+04 and the “Expression C1D2, gene IGHA1” value (IG expression; [8]) was 1.3E+05. For the same compound, the “Expression C1D2, gene IGHV3-30” value (IG expression; [8]) was 2.4E+04, the “Expression C1D2, gene IGHV3-33” value (IG expression; [8]) was 2.1E+04 and the “Expression C1D2, gene IGKC” value (IG expression; [8]) was 1.4E+05. For the same compound, the IC50 [3] was 10.4 nM and the IC50 [4] was 24.3 nM.
In the case of `CC(C)C[C@H](NC(=O)[C@H](Cc1ccccc1)NC(=O)c1cnccn1)B(O)O` [bortezomib], the “fold longer median TTP, IG-High vs IG-Low patients” value ([5]; cutoff 0.29, log-rank P-value=0.025) is reported as 1.4 fold, the “median TTP (time-to-progression), IG-Low patients” value ([5]; mean IG expression score <0.29) is reported as 6.0 months and the “median TTP (time-to-progression), IG-High patients” value ([5]; mean IG expression score >=0.29) is reported as 8.4 months.
